Reference: publication PMC10287566, “Signaling-specific inhibition of the CB1 receptor for cannabis use disorder: phase 1 and phase 2a randomized trials” (Nature Medicine, 2023)

Tests used:
Adrenergic alpha1 = assay: Eurofins binding screen; settings: 10 µM
Muscarinic M1 = Muscarinic M1 (Homo sapiens, UniProt P11229); assay: Eurofins binding screen
Chemokines CXCR2 (IL-8B) = Chemokines CXCR2 (IL-8B) (Homo sapiens, UniProt P25025); assay: Eurofins binding screen
Dopamine D1 = Dopamine D1 (Homo sapiens, UniProt P21728); assay: Eurofins binding screen
Sequence of Dopamine D1 (P21728 whole entry): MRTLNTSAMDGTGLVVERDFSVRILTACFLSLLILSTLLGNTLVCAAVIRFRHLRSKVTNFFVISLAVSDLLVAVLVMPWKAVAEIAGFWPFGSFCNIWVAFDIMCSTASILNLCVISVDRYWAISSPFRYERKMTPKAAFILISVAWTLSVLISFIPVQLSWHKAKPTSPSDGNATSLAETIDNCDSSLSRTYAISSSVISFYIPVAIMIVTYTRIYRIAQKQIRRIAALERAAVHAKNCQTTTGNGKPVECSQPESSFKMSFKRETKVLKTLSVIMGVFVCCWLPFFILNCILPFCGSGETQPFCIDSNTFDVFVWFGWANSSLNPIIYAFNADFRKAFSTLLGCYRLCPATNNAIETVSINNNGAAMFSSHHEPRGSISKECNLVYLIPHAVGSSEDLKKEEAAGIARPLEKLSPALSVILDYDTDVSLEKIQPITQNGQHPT

Angiotensin-II AT1 = Angiotensin-II AT1 (Homo sapiens, UniProt P30556); assay: Eurofins binding screen
Dopamine D2S = Dopamine D2S (Homo sapiens, UniProt P14416); assay: Eurofins binding screen
Sequence of Dopamine D2S (P14416 1-414 isoform P14416-2): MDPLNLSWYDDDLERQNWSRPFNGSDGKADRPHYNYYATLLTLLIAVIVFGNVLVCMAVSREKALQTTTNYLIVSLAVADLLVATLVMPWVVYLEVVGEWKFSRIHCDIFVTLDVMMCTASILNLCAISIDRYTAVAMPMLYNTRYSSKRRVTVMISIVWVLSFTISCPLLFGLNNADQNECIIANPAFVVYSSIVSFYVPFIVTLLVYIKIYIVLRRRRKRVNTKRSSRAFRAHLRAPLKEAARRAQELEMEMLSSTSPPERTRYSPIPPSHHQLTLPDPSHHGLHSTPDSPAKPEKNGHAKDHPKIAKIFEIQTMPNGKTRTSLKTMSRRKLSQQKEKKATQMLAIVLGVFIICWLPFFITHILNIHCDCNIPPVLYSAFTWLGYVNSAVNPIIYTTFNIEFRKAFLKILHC

Vasopressin V1a = Vasopressin V1a (Homo sapiens, UniProt P37288); assay: Eurofins binding screen
Chemokines CCR1 = Chemokines CCR1 (Homo sapiens, UniProt P32246); assay: Eurofins binding screen
Sequence of Chemokines CCR1 (P32246 whole entry): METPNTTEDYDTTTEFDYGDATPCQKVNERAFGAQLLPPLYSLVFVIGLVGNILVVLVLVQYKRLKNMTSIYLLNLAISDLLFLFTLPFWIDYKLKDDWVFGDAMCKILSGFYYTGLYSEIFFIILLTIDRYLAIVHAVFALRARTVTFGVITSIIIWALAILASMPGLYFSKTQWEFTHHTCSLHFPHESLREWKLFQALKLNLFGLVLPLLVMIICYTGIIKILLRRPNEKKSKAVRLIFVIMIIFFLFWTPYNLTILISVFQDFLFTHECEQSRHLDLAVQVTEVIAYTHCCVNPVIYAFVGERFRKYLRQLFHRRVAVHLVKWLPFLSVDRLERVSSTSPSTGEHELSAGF

Cannabinoid CB1 = Cannabinoid CB1 (Homo sapiens, UniProt P21554); assay: Eurofins binding screen
Sequence of Cannabinoid CB1 (P21554 whole entry): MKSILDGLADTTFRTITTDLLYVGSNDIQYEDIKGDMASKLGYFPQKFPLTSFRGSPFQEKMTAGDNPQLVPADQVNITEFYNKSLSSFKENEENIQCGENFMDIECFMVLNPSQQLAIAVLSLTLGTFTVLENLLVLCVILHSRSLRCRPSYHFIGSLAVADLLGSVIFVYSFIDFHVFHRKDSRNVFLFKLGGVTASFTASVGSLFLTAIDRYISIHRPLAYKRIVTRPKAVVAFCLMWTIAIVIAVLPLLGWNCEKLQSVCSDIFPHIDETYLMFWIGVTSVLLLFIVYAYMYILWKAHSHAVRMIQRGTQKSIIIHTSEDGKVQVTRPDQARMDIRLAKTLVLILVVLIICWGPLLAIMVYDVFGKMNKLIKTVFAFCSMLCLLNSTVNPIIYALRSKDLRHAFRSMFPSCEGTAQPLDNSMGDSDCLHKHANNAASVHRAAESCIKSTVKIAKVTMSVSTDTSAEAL

Prostanoid IP (PGI2) = Prostanoid IP (PGI2) (Homo sapiens, UniProt P43119); assay: Eurofins binding screen
PXR = PXR (Homo sapiens, UniProt O75469); assay: Eurofins binding screen
Sequence of PXR (O75469 whole entry): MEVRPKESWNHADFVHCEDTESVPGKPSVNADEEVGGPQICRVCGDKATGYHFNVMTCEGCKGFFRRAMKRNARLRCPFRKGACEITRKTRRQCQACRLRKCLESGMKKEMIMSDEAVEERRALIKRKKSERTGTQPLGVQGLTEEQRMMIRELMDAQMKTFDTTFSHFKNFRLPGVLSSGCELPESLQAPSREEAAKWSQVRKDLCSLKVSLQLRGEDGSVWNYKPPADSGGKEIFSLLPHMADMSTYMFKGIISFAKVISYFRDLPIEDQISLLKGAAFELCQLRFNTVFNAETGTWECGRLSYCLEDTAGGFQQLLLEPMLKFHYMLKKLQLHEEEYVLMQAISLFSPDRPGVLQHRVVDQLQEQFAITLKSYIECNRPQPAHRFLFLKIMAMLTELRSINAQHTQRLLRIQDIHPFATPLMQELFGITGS

Neuropeptide Y Y1 = Neuropeptide Y Y1 (Homo sapiens, UniProt P25929); assay: Eurofins binding screen
Potassium channels SKCa = assay: Eurofins binding screen; settings: 10 µM
Endothelin ETB = Endothelin ETB (Homo sapiens, UniProt P24530); assay: Eurofins binding screen
Sequence of Endothelin ETB (P24530 27-442): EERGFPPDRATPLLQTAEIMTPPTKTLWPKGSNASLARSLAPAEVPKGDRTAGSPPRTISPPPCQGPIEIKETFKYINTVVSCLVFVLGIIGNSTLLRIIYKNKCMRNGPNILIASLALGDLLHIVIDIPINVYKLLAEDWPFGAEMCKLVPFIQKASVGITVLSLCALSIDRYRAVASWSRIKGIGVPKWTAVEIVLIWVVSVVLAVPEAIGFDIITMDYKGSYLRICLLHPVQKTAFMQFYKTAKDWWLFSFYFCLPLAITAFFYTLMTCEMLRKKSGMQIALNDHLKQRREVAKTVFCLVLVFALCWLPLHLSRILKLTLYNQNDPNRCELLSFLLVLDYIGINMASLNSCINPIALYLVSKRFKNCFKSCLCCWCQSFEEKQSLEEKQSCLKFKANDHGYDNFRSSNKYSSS

Prostanoid EP2 = Prostanoid EP2 (Homo sapiens, UniProt P43116); assay: Eurofins binding screen
[1] = test system: Sodium channels Na+-site2; assay: Eurofins binding screen; settings: 10 µM
Bradykinin B2 = Bradykinin B2 (Homo sapiens, UniProt P30411); assay: Eurofins binding screen
Neuropeptide Y Y2 = Neuropeptide Y Y2 (Homo sapiens, UniProt P49146); assay: Eurofins binding screen
[2] = target: Cholecystokinin CCK1 (CCKA) (Homo sapiens, UniProt P32238); assay: Eurofins binding screen
BZD (central) = assay: Eurofins binding screen; settings: 10 µM
Glutamate PCP = assay: Eurofins binding screen; settings: 10 µM
Serotonin 5-HT2B = Serotonin 5-HT2B (Homo sapiens, UniProt P41595); assay: Eurofins binding screen
[3] = target: Serotonin transporter SET (Homo sapiens, UniProt P31645); assay: Eurofins binding screen
Adrenergic alpha2 = assay: Eurofins binding screen; settings: 10 µM
Cl- channel = assay: Eurofins binding screen; settings: 10 µM
Galanin GAL2 = Galanin GAL2 (Homo sapiens, UniProt O43603); assay: Eurofins binding screen
Sequence of Galanin GAL2 (O43603 whole entry): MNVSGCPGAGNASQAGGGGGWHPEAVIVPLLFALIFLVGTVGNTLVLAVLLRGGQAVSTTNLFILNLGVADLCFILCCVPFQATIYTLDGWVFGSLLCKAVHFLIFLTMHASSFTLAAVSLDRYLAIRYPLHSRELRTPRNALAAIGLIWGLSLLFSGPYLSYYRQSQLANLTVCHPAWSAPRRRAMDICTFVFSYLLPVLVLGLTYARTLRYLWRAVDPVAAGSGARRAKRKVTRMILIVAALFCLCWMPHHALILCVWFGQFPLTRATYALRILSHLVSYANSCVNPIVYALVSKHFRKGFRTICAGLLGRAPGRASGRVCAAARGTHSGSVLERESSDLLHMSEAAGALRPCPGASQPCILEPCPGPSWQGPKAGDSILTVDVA

[4] = target: Calcitonin gene-related peptide CGRP (Homo sapiens, UniProt O60894+Q16602); assay: Eurofins binding screen
GABA = assay: Eurofins binding screen; settings: 10 µM
Purinergic P2Y = assay: Eurofins binding screen; settings: 10 µM
Potassium channels KV = assay: Eurofins binding screen; settings: 10 µM
Melanocortin MC4 = Melanocortin MC4 (Homo sapiens, UniProt P32245); assay: Eurofins binding screen
[5] = target: PBR (peripheral benzodiazepine receptor) (Rattus norvegicus, UniProt P16257); assay: Eurofins binding screen; settings: for Percent inhibition of control specific binding: 10 µM
Sequence of PBR (peripheral benzodiazepine receptor) (P16257 whole entry): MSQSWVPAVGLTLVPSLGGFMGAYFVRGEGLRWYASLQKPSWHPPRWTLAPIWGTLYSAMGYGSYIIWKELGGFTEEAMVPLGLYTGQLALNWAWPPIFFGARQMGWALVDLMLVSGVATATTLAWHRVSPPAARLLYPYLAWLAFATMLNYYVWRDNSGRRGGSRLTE

Dopamine D4.4 = Dopamine D4.4 (Homo sapiens, UniProt P21917); assay: Eurofins binding screen
Opioid mu (MOP) = Opioid mu (MOP) (Homo sapiens, UniProt P35372); assay: Eurofins binding screen
Sequence of Opioid mu (MOP) (P35372 whole entry): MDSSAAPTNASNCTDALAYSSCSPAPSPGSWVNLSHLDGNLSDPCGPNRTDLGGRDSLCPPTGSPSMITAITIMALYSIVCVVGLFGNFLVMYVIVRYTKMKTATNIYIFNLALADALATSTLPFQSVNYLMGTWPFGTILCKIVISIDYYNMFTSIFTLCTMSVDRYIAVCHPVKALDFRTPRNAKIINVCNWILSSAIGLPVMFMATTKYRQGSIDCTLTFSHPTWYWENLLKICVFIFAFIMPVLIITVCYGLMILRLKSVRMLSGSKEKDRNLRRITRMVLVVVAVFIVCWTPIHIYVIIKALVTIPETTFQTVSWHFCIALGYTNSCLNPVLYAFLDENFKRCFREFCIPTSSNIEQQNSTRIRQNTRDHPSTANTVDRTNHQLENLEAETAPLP

Serotonin 5-HT2A = Serotonin 5-HT2A (Homo sapiens, UniProt P28223); assay: Eurofins binding screen
Sequence of Serotonin 5-HT2A (P28223 whole entry): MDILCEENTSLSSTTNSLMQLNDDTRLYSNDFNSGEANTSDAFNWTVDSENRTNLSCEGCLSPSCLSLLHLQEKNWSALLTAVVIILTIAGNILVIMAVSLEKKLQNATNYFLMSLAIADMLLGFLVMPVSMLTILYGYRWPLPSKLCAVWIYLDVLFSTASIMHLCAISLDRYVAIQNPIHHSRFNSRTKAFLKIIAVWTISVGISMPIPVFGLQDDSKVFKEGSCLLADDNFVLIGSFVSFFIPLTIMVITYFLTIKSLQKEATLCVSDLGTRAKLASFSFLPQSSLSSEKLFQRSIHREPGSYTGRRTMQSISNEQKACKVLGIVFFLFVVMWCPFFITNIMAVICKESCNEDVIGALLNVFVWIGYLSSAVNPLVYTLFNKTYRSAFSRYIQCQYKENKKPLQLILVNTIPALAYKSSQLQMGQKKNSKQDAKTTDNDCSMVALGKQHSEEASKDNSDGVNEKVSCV

Dopamine transporter DAT = Dopamine transporter DAT (Homo sapiens, UniProt Q01959); assay: Eurofins binding screen
Sequence of Dopamine transporter DAT (Q01959 whole entry): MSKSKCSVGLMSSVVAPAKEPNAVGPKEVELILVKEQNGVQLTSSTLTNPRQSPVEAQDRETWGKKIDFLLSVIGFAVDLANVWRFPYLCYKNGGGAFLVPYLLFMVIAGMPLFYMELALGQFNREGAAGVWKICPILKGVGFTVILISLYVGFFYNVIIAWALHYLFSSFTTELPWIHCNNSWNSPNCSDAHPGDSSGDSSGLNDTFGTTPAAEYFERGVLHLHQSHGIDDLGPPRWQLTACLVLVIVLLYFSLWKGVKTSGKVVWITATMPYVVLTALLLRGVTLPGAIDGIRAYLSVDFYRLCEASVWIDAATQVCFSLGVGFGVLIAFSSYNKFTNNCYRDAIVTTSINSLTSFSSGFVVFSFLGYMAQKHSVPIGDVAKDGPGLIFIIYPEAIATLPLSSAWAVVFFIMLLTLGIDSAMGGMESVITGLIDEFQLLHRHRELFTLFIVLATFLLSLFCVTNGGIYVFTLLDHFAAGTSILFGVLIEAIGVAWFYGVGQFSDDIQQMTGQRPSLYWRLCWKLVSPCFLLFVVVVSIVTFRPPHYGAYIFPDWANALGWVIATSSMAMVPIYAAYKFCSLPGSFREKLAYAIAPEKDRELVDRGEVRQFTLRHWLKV

Cannabinoid CB2 = Cannabinoid CB2 (Homo sapiens, UniProt P34972); assay: Eurofins binding screen
Sequence of Cannabinoid CB2 (P34972 whole entry): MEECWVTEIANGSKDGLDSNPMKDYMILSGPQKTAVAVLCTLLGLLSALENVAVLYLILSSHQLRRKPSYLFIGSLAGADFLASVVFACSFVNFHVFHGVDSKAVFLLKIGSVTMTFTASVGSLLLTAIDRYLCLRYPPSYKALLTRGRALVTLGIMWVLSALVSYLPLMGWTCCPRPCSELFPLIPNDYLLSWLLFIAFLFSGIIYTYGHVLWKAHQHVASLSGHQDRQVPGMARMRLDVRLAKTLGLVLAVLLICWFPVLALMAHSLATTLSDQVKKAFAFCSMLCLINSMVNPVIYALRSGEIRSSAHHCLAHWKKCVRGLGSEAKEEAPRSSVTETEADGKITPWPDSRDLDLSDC

Muscarinic M2 = Muscarinic M2 (Homo sapiens, UniProt P08172); assay: Eurofins binding screen
mice = assay: THC-induced impairment of long-term memory (object recognition); format: in vivo
[6] = read-out: Percent inhibition of control specific binding

## CC(=O)[C@H]1CC[C@H]2[C@@H]3CC=C4C[C@@H](O)CC[C@]4(C)[C@H]3CC[C@]12C [pregnenolone, reference compound]
Adrenergic alpha1
  Percent inhibition of control specific binding: 1%
Muscarinic M1; 10 µM
  Percent inhibition of control specific binding: -14%
Chemokines CXCR2 (IL-8B); 10 µM
  Percent inhibition of control specific binding: -10%
Dopamine D1; 10 µM
  Percent inhibition of control specific binding: -8%
Angiotensin-II AT1; 10 µM
  Percent inhibition of control specific binding: -28%
Dopamine D2S; 10 µM
  Percent inhibition of control specific binding: 5%
Vasopressin V1a; 10 µM
  Percent inhibition of control specific binding: 10%
Chemokines CCR1; 10 µM
  Percent inhibition of control specific binding: -10%
Cannabinoid CB1; 10 µM
  Percent inhibition of control specific binding: 10%
Prostanoid IP (PGI2); 10 µM
  Percent inhibition of control specific binding: -12%
PXR; 10 µM
  Percent inhibition of control specific binding: 15%
Neuropeptide Y Y1; 10 µM
  Percent inhibition of control specific binding: -11%
Potassium channels SKCa
  Percent inhibition of control specific binding: -8%
Endothelin ETB; 10 µM
  Percent inhibition of control specific binding: 4%
Prostanoid EP2; 10 µM
  Percent inhibition of control specific binding: 24%
[1]
  Percent inhibition of control specific binding: 23%
Bradykinin B2; 10 µM
  Percent inhibition of control specific binding: -9%
Neuropeptide Y Y2; 10 µM
  Percent inhibition of control specific binding: -9%
[2]; 10 µM
  Percent inhibition of control specific binding: -30%
BZD (central)
  Percent inhibition of control specific binding: -43%
Glutamate PCP
  Percent inhibition of control specific binding: 5%
Serotonin 5-HT2B; 10 µM
  Percent inhibition of control specific binding: -38%
[3]; 10 µM
  Percent inhibition of control specific binding: 1%
Adrenergic alpha2
  Percent inhibition of control specific binding: -2%
Cl- channel
  Percent inhibition of control specific binding: 29%
Galanin GAL2; 10 µM
  Percent inhibition of control specific binding: 1%
[4]; 10 µM
  Percent inhibition of control specific binding: -12%
GABA
  Percent inhibition of control specific binding: 10%
Purinergic P2Y
  Percent inhibition of control specific binding: -3%
Potassium channels KV
  Percent inhibition of control specific binding: -23%
Melanocortin MC4; 10 µM
  Percent inhibition of control specific binding: -15%
[5]
  Percent inhibition of control specific binding: > 40%
[5]; listed as Preg
  Percent inhibition of control specific binding: 42%
Dopamine D4.4; 10 µM
  Percent inhibition of control specific binding: 20%
Opioid mu (MOP); 10 µM
  Percent inhibition of control specific binding: -5%
Serotonin 5-HT2A; 10 µM
  Percent inhibition of control specific binding: -1%
Dopamine transporter DAT; 10 µM
  Percent inhibition of control specific binding: -12%
Cannabinoid CB2; 10 µM
  Percent inhibition of control specific binding: -19%
Muscarinic M2; 10 µM
  Percent inhibition of control specific binding: -4%

## COc1ccc(CO[C@H]2CC[C@@]3(C)C(=CC[C@H]4[C@@H]5CC[C@H](C(C)=O)[C@@]5(C)CC[C@@H]43)C2)cc1 [AEF0117, 3β-(4-methoxybenzyloxy)pregn-5-en-20-one]
Adrenergic alpha1
  Percent inhibition of control specific binding: -5%
Muscarinic M1; [6]
  inhibition at 10 µM: -14%
Chemokines CXCR2 (IL-8B); [6]
  inhibition at 10 µM: -1%
Dopamine D1; [6]
  inhibition at 10 µM: -12%
Angiotensin-II AT1; [6]
  inhibition at 10 µM: 7%
Dopamine D2S; [6]
  inhibition at 10 µM: -1%
Vasopressin V1a; [6]
  inhibition at 10 µM: 0%
Chemokines CCR1; [6]
  inhibition at 10 µM: 5%
Cannabinoid CB1; [6]
  inhibition at 10 µM: 11%
Prostanoid IP (PGI2); [6]
  inhibition at 10 µM: -4%
PXR; [6]
  inhibition at 10 µM: 7%
Neuropeptide Y Y1; [6]
  inhibition at 10 µM: -9%
Potassium channels SKCa
  Percent inhibition of control specific binding: 12%
Endothelin ETB; [6]
  inhibition at 10 µM: 2%
Prostanoid EP2; [6]
  inhibition at 10 µM: 27%
[1]
  Percent inhibition of control specific binding: 5%
Bradykinin B2; [6]
  inhibition at 10 µM: -1%
Neuropeptide Y Y2; [6]
  inhibition at 10 µM: -22%
[2]; [6]
  inhibition at 10 µM: -19%
BZD (central)
  Percent inhibition of control specific binding: 1%
Glutamate PCP
  Percent inhibition of control specific binding: 2%
Serotonin 5-HT2B; [6]
  inhibition at 10 µM: -15%
[3]; [6]
  inhibition at 10 µM: 8%
Adrenergic alpha2
  Percent inhibition of control specific binding: 7%
Cl- channel
  Percent inhibition of control specific binding: -4%
Galanin GAL2; [6]
  inhibition at 10 µM: -9%
mice
  THC's effects on long-term object recognition memory: inhibited
mice; Impairment of long-term memory
  % Inhibition: 100%
  ID100: ≤ 5 µg/kg
[4]; [6]
  inhibition at 10 µM: -21%
GABA
  Percent inhibition of control specific binding: 9%
Purinergic P2Y
  Percent inhibition of control specific binding: 16%
Potassium channels KV
  Percent inhibition of control specific binding: -5%
Melanocortin MC4; [6]
  inhibition at 10 µM: -8%
[5]; [6]
  inhibition at 10 µM: 4%
Dopamine D4.4; [6]
  inhibition at 10 µM: -7%
Opioid mu (MOP); [6]
  inhibition at 10 µM: -10%
Serotonin 5-HT2A; [6]
  inhibition at 10 µM: 2%
Dopamine transporter DAT; [6]
  inhibition at 10 µM: 0%
Cannabinoid CB2; [6]
  inhibition at 10 µM: -2%
Muscarinic M2; [6]
  inhibition at 10 µM: -3%
